ChEMBL document CHEMBL1129840, “The synthesis and SAR of new 4-(N-alkyl-N-phenyl)amino-6,7-dimethoxyquinazolines and 4-(N-alkyl-N-phenyl)aminopyrazolo[3,4-d]pyrimidines, inhibitors of CSF-1R tyrosine kinase activity” (Bioorg Med Chem Lett, 1997)

What was measured:
[1] = target: Macrophage colony-stimulating factor 1 receptor (Homo sapiens, UniProt P07333); assay: Antagonism towards Colony stimulating factor 1 receptor (CSF-1R); type: functional
[2] = target: Epidermal growth factor receptor (Homo sapiens, UniProt P00533); assay: Antagonism towards Epidermal growth factor receptor
[3] = target: Platelet-derived growth factor receptor (Homo sapiens, UniProt P09619+P16234); assay: Inhibition of platelet-derived growth factor receptor (PDGF-R)
[4] = target: Tyrosine-protein kinase Lck (Homo sapiens, UniProt P06239); assay: Inhibition of p56 lck tyrosine kinase (inactive)
Tyrosine-protein kinase Lck, sequence (P06239 whole entry): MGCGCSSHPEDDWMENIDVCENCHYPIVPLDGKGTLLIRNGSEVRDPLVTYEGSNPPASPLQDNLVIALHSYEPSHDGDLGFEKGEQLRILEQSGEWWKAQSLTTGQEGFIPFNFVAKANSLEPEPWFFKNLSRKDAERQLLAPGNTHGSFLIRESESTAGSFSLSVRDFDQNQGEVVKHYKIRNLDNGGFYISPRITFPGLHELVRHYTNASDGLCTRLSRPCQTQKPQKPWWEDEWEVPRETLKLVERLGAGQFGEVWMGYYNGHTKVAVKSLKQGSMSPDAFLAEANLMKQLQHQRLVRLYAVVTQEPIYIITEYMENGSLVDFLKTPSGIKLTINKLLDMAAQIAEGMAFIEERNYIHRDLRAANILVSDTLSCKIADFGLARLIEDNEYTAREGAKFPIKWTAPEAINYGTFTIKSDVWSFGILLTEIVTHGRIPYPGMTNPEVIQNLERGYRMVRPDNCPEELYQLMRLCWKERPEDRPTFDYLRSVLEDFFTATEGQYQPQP

Epidermal growth factor receptor, sequence (P00533 whole entry): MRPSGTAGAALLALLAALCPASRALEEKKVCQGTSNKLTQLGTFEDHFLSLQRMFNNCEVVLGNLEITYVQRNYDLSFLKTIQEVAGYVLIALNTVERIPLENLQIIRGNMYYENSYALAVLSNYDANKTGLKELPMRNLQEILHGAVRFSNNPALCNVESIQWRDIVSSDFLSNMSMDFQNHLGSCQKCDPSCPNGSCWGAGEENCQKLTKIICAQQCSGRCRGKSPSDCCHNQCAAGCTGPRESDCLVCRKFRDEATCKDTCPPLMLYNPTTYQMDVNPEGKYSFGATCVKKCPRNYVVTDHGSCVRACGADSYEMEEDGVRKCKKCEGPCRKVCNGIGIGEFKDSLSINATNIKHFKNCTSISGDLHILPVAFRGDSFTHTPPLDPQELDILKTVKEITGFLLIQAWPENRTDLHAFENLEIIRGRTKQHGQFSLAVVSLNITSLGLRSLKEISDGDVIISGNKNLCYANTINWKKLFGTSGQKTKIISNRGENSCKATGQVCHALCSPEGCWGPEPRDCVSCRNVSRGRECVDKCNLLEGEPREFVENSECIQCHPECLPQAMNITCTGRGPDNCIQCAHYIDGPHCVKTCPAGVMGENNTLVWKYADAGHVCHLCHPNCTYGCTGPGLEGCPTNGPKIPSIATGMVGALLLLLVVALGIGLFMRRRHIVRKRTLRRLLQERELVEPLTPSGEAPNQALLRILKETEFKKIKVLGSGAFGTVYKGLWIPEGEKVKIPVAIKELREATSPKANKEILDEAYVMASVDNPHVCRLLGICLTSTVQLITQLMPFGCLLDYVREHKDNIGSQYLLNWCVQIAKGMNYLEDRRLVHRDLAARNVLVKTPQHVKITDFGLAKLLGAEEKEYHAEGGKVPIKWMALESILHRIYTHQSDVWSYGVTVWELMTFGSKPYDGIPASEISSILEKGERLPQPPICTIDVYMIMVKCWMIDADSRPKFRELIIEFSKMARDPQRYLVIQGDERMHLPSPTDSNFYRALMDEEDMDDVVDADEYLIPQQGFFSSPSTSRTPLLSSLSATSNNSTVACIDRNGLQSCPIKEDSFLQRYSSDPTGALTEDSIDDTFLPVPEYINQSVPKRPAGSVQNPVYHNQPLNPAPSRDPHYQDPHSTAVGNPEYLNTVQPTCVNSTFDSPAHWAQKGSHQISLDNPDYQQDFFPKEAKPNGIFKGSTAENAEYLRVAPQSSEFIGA
Macrophage colony-stimulating factor 1 receptor, sequence (P07333 whole entry): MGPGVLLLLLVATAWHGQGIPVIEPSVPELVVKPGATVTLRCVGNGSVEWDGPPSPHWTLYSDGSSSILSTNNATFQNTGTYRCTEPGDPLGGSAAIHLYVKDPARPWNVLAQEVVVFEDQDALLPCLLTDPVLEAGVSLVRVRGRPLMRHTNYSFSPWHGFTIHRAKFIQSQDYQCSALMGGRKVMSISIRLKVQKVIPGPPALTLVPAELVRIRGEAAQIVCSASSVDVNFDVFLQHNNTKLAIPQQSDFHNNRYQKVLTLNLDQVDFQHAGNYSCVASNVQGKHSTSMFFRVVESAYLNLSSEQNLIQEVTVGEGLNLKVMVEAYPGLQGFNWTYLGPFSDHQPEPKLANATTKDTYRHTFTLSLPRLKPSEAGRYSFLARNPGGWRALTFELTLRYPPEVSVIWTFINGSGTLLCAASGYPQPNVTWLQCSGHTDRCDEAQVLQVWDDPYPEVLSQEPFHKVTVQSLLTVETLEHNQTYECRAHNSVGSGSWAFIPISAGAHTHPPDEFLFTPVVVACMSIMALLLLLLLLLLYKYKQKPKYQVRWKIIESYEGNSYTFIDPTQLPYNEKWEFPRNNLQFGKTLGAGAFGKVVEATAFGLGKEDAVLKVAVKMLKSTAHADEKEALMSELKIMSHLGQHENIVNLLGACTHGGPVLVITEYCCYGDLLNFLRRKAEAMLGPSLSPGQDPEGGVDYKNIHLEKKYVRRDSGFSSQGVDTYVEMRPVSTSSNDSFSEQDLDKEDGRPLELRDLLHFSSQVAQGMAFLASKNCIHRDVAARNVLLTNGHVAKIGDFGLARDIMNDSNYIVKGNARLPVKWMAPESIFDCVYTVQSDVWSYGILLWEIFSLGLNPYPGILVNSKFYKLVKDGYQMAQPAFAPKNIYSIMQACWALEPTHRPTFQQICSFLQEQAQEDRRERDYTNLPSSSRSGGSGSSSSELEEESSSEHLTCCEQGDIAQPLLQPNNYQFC

Row | IC50 [1] | IC50 [2] | IC50 [3] | IC50 [4] | Structure (SMILES)
1 | 0.6 µM | > 50 µM | – | – | CN(c1ccccc1)c1[nH]cnc2nncc1-2
2 | 2 µM | 4 µM | – | – | COc1cc2ncnc(N(C)c3ccc(C)cc3)c2cc1OC
3 | 20 µM | > 20 µM | – | – | COc1ccc2ncnc(N(C)c3ccccc3)c2c1
4 | 5 µM | > 20 µM | – | – | CN(c1ccccc1)c1ncnc2ccc(Cl)cc12
5 | – | 5.5 µM | – | – | CCN(c1ccccc1)c1ncnc2cc(OC)c(OC)cc12
6 | 2.1 µM | 3 µM | – | – | COc1cc2ncnc(N(C)c3ccc(Cl)cc3)c2cc1OC
7 | > 20 µM | > 20 µM | – | – | Cc1cc(C)c2ncnc(N(C)c3ccccc3)c2c1
8 | 1.6 µM | 6.5 µM | – | – | Cc1cccc(N(C)c2ncnc3cc(C)c(C)cc23)c1
9 | 4 µM | 2 µM | – | – | CN(c1ccccc1)c1ncnc2[nH]cnc12
10 | > 20 µM | > 50 µM | – | – | CN(c1ccccc1)c1ncnc2ccccc12
11 | – | 4 µM | 15 µM | > 100 µM | COc1cc2ncnc(N(C)c3ccccc3)c2cc1OC
12 | > 20 µM | > 20 µM | – | – | COc1cc2c(N(C)c3ccccc3)ncnc2c(OC)c1OC

Further lines, the compound ahead of its results:

Row | Structure (SMILES) | IC50 [1] | IC50 [2] | IC50 [3] | IC50 [4]
13 | COc1cc2ncnc(N(C)c3cccc(Cl)c3)c2cc1OC | 1.5 µM | 0.1 µM | – | –
14 | COc1cc2nc(Cl)nc(N(C)c3ccccc3)c2cc1OC | > 50 µM | > 50 µM | – | –
15 | COc1nc(N(C)c2ccccc2)c2cc(OC)c(OC)cc2n1 | > 50 µM | > 50 µM | – | –
16 | COc1cc2ncnc(N(C)c3cccc(C(F)(F)F)c3)c2cc1OC | 0.5 µM | 30 µM | – | –
17 | Cc1cccc(N(C)c2ncnc3n[nH]cc23)c1 | 0.18 µM | > 50 µM | – | –
18 | COc1cc2ncnc(Nc3ccccc3)c2cc1OC | > 50 µM | 0.05 µM | – | –
19 | COc1cc2ncnc(Nc3cc(OC)c(OC)c(OC)c3)c2cc1OC | > 100 µM | – | 20 µM | –
20 | COc1cc2ncnc(N(C)c3cccc(C)c3)c2cc1OC | 0.18 µM | 12 µM | – | –
21 | COc1cc2ncnc(N3CCc4ccccc43)c2cc1OC | 5 µM | 3 µM | – | –
